Experimental findings from PMC9821961, “Ring-Modified Histidine-Containing Cationic Short Peptides Exhibit Anticryptococcal Activity by Cellular Disruption” (Molecules, 2022) are described below.

Molecules are shown by their SMILES. Converted amounts (≈) assume the structure as drawn. Where two headings read alike, the source gives them in different places.

In test [1] the test system is C. parapsilosis. Briefly: microbe, parasite or virus in culture. The test is classed as cell-based, Candida parapsilosis. The note with it: 48 h. From the text: (§1) Microbial strains: Microbial strains were procured from National Culture Collection of Pathogenic Fungi (NCCPF) at the Postgraduate Institute of Medical Education & Research (PGIMER), Chandigarh and Microbial Type Culture Collection and Gene bank (MTCC) at the Institute of Microbial Technology (IMTECH), Chandigarh, India. Peptides were screened against five different strains of fungi: viz. Candida albicans (NCCPF400034), Candida glabrata (MTCC 3019), Candida parapsilosis (NCCPF 440002), Candida krusei (NCCPF 440002) and Cryptococcus neoformans (NCCPF250316), and five strains of bacteria: viz. Escherichia coli (MTCC 2961), Staphylococcus aureus (MTCC 3160), Enterococcus faecalis (MTCC 439), Streptococcus pyogenes (MTCC 442) and Pseudomonas aeruginosa (MTCC 3542).
(§2) Growth media: Antifungal susceptibility testing was carried out using standard broth microdilution assays as per the Clinical and Laboratory Standards Institute (CLSI) guidelines for fungi. RPMI 1640 (Sigma), yeast extract, peptone and dextrose (YPED, Himedia) were used as the incubation broths. The cells were diluted to a cell density of 10^3 colony forming unit (CFU/mL) and incubated at 30 °C for 48 h. Furthermore, Muller Hinton (Himedia) media was utilized for bacterial strains and antibacterial activity was evaluated per CLSI guidelines for bacteria. Bacterial cells were diluted to a cell density of 10^5 CFU/mL and incubated at 37 °C for 24 h. Amphotericin B (Himedia, India) and rifampicin (Himedia, India) were used as standard drugs for the evaluation of activity against all the fungal and bacterial strains, respectively.
(§3) The stock solutions of peptides (2 mg/mL) were prepared in DMSO. Specific amounts of peptide from stock solution were added to a 96-well microtiter plate containing 100 μL of growth media and then serially diluted two-fold. A further 100 μL of growth media containing microbial cells were added to each well and incubated at 30–37 °C for 24–48 h. The optical density (OD) was measured at 600 nm using a BioStack Ready (BioTek Instruments, Winooski, VT, USA) microplate reader to analyze microbial growth inhibition, and IC50 and MIC values were calculated. To visualize the growth and inhibition pattern, a solution of 3-(4,5-dimethylthiazol-2-yl)-2,5-diphenyltetrazolium bromide (MTT) in water was added to the plate and incubated for 2–3 h. MTT reacts with the mitochondrial dehydrogenases, which are present only in a viable cell, to give blue colored formazan crystals. Therefore, a darker color indicates a high number of viable cells; however, non-viable cells appear pale or colorless.

Test [2] relates to C. albicans. Briefly: microbe, parasite or virus in culture. As to conditions: 48 h. The test is classed as cell-based, Candida albicans.
From the text: as §1, §2, §3

Test [3] relates to C. neoformans cells. Briefly: Time kill assay. The note with it: negative-control peptides, compared with untreated cells, 24 h.
The subject of test [4] is C. glabrata. In words: microbe, parasite or virus in culture. The test is classed as cell-based, Candida glabrata. The note with it: 48 h.
From the text: as §1, §2, §3

Test [5] deals with C. krusei. Briefly: microbe, parasite or virus in culture. The format is cell-based, Candida krusei. As to conditions: 48 h.
From the text: as §1, §2, §3

In test [6] the test system is C. neoformans. Briefly: microbe, parasite or virus in culture. The test is classed as cell-based, Cryptococcus neoformans. As to conditions: 48 h.
From the text: as §1, §2, §3

In test [7] the test system is E. coli. In words: microbe, parasite or virus in culture. The format is cell-based, Escherichia coli. As to conditions: 48 h.
From the text: as §1
as §2, with “Bacterial cells were diluted to a cell density of 10^5 CFU/mL and incubated at 37 °C for 24 h.” left out
as §3

The test system of test [8] is P. aeruginosa. Briefly: microbe, parasite or virus in culture. The test is classed as cell-based, Pseudomonas aeruginosa. The note with it: 48 h.
The subject of test [9] is E. faecalis. In words: microbe, parasite or virus in culture. As to conditions: 48 h. The format is cell-based, Enterococcus faecalis.
For test [10], the system named is S. aureus. In words: microbe, parasite or virus in culture. The format is cell-based, Staphylococcus aureus. As to conditions: 48 h.
From the text: as §1
as §2, with “Bacterial cells were diluted to a cell density of 10^5 CFU/mL and incubated at 37 °C for 24 h.” left out
as §3

Test [11] has as its system S. pyogens. In words: microbe, parasite or virus in culture. The test is classed as cell-based, Streptococcus pyogenes. As to conditions: 48 h.
For test [12], the system named is C. neoformans cells. In words: CLSM FITC-labeled peptide uptake assay. The test is classed as cell-based, Cryptococcus neoformans. As to conditions: FITC-tagged peptide, 12 h. As for the experimental part:
After incubation, cells were harvested by centrifugation at 2000× g for 10 min at 4 °C and suspended in PBS and mounted on a slide for visualization under a confocal microscope with excitation and emission wavelengths of 488 nm and 515 nm, respectively.

Test [13] deals with Cryptococcal cells. Briefly: microbe, parasite or virus in culture. As to conditions: Cryptococcus neoformans, read-out: MIC Alone.
In test [14] the test system is Cryptococcal cells.

Usually IC50 stands for the concentration that inhibits the measured activity by half. Read a low IC50 as greater potency. With `COC(=O)[C@H](Cc1ncn(Cc2cc(C(C)(C)C)cc(C(C)(C)C)c2)c1I)NC(=O)[C@H](Cc1c[nH]c2ccccc12)NC(=O)OC(C)(C)C` [9d], the IC50 in test [1], in test [2], in test [4], in [5] and in test [6] was greater than 35.2 µg/mL each time. Moreover, the MIC in [1], in [2], in test [4], in test [5] and in [6] was greater than 64.0 µg/mL throughout. Besides, the “Growth inhibition in time-kill profile” value in [3] is recorded as “did not show any growth inhibition”.

Regarding `COC(=O)[C@H](Cc1ncn(Cc2cccc(Cl)c2)c1I)NC(=O)[C@@H](N)Cc1c[nH]c2ccccc12` [10l], the IC50 in [1], in test [2], in test [7], in test [8], in test [9] and in test [10] was greater than 35.2 µg/mL each time. The 50% inhibitory concentration (IC50) in test [4], in test [11] and in test [5] was greater than 35.2 µg/mL each time. For the same molecule, the MIC in test [1], in test [2], in test [7], in test [8], in test [9] and in test [10] was greater than 64.0 µg/mL throughout. For the same molecule, the MIC in [4] was greater than 64.0 µg/mL; in [11] it was greater than 64.0 µg/mL; in test [5], greater than 64.0 µg/mL; in [6] it was 32.11 µg/mL (≈ 53 µM).

Take `COC(=O)[C@H](Cc1ncn(Cc2ccc(C(C)C)cc2)c1I)NC(=O)[C@@H](N)Cc1c[nH]c2ccccc12` [10c]: the IC50 in test [1], in test [2], in [7], in test [8], in test [9] and in [10] was greater than 35.2 µg/mL throughout. Moreover, the IC50 is greater than 35.2 µg/mL in [4], greater than 35.2 µg/mL in [11], greater than 35.2 µg/mL in test [5] and 8.81 µg/mL (≈ 14.4 µM) in [6]. The MIC in test [1], in test [2], in test [7], in test [8], in [9] and in [10] was greater than 64.0 µg/mL throughout. The MIC in test [4] was greater than 64.0 µg/mL; in [11] it was greater than 64.0 µg/mL; in test [5] it was greater than 64.0 µg/mL; in [6], 16.02 µg/mL (≈ 26.1 µM).

For `COC(=O)[C@H](Cc1ncn(Cc2ccc([N+](=O)[O-])cc2)c1I)NC(=O)[C@@H](N)Cc1c[nH]c2ccccc12` [10h], the 50% inhibitory concentration (IC50) in [1], in [2], in [4] and in [5] was greater than 35.2 µg/mL throughout. For the same molecule, the MIC in test [1], in [2], in test [4], in [5] and in test [6] was greater than 64.0 µg/mL in each case. Also, the “Fluorescence of cells incubated with FITC-labeled peptide (CLSM)” value in test [12] is on record as “did not show any fluorescence”.

Regarding `COC(=O)[C@H](Cc1ncn(Cc2cccc(C(F)(F)F)c2)c1I)NC(=O)[C@@H](N)Cc1c[nH]c2ccccc12` [10e], the IC50 in [1], in test [2], in test [7], in test [8], in test [9] and in [10] was greater than 35.2 µg/mL each time. Moreover, the 50% inhibitory concentration (IC50) in test [4] was greater than 35.2 µg/mL; in [11] it was greater than 35.2 µg/mL; in test [5], greater than 35.2 µg/mL; in test [6], 4.87 µg/mL (≈ 7.62 µM). The MIC in test [1], in test [2], in [7], in [8], in test [9] and in test [10] was greater than 64.0 µg/mL throughout. The MIC in test [4] was greater than 64.0 µg/mL; in test [11], greater than 64.0 µg/mL; in test [5], greater than 64.0 µg/mL; in test [6], 8.86 µg/mL (≈ 13.9 µM).

In the case of `COC(=O)[C@H](Cc1ncn(Cc2cccc(F)c2)c1I)NC(=O)[C@@H](N)Cc1c[nH]c2ccccc12` [10k], the IC50 in [1], in test [2], in [7], in [8], in [9] and in test [10] was greater than 35.2 µg/mL each time. In addition, the IC50 in test [4] is greater than 35.2 µg/mL; in test [11] it was greater than 35.2 µg/mL; in test [5], greater than 35.2 µg/mL; in test [6], 2.78 µg/mL (≈ 4.72 µM). The MIC in test [1], in test [2], in test [7], in test [8], in [9] and in test [10] was greater than 64.0 µg/mL in each case. The MIC in test [4] was greater than 64.0 µg/mL; in [11] it was greater than 64.0 µg/mL; in [5], greater than 64.0 µg/mL; in [6] it was 4.64 µg/mL (≈ 7.87 µM).

`OC(Cn1cncn1)(Cn1cncn1)c1ccc(F)cc1F` [Flu, fluconazole]: the MIC in test [13] was 10 µg/mL (≈ 32.7 µM). Moreover, in test [14] (combination 10o + Flu), the Effect entry is reported as “Additive”, the FICI was determined as 1.00, the “Fold Decrease in MIC” value is on record as 2 and the “MIC In Combination” value stood at 5.0 µg/mL. Besides, in test [14] (combination 10d + Flu), the Effect result is listed as “Synergistic”, the FICI was 0.19, the “Fold Decrease in MIC” value was found to be 16 and the “MIC In Combination” value was determined as 0.625 µg/mL. Also, in test [14] (combination 10d + Flu, listed as fluconazole), the “Fold Decrease in MIC” value is “approx. 16”. In addition, the “MIC Alone” value in [14] (cryptococcal cells, agent alone) stood at 10.0 µg/mL (≈ 32.7 µM).
